# Reference: publication PMC12229235 (Science signaling, 2024)
# Biological target: AKT3 (Homo sapiens, UniProt Q9Y243)
# Test: LANCE Ultra TR-FRET kinase assay with Ulight-crosstide substrate
# Assay type: biochemical
# AKT3, sequence (Q9Y243 2-479): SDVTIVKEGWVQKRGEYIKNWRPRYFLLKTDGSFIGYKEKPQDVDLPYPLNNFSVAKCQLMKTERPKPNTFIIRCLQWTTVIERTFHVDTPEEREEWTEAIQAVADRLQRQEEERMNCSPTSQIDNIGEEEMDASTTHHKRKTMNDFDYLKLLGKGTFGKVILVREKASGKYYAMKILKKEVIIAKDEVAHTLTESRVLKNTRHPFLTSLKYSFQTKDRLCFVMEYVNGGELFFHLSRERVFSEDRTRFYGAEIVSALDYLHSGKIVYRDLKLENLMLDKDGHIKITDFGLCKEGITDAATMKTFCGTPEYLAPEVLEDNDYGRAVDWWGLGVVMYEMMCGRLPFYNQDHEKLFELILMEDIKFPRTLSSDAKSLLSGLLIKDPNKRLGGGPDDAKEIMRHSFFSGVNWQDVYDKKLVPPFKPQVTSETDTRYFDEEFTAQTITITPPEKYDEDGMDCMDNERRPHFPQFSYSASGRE
# AKT3, sequence (O15530 whole entry partner): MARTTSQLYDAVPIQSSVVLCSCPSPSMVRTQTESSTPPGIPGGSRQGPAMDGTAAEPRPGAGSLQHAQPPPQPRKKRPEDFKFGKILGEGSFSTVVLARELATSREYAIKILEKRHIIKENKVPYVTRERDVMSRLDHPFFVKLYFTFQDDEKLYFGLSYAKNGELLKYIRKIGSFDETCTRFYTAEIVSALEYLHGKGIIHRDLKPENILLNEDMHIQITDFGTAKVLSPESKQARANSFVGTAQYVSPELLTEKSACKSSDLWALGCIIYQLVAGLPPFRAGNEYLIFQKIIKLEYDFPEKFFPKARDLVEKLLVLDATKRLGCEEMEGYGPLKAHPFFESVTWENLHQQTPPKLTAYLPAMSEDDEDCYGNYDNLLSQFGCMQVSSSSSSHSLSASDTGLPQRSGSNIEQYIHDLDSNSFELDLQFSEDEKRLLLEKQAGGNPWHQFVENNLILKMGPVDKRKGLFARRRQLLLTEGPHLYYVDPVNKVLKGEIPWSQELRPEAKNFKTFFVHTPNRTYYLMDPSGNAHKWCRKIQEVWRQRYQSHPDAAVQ
structure (smiles),measurement,value
"CC(=O)N(C)[C@H]1CC[C@H](CC(=O)Nc2cc(-c3ccccc3)c(-c3ccc(C4(N)CCC4)cc3)cn2)CC1 [AKT3i, N-(5-(4-(1-aminocyclobutyl)phenyl)-4-phenylpyridin-2-yl)-2-((1r,4r)-4-(N-methylacetamido)cyclohexyl) acetamide]",IC50,0.013 µM
